The values below come from article PMC4741889, “Ligand-based chemoinformatic discovery of a novel small molecule inhibitor targeting CDC25 dual specificity phosphatases and displaying in vitro efficacy against melanoma cells” (Oncotarget, 2015).

Like-named read-outs stand apart in the source and are kept apart here.

The target of experiment [1] is T1, CDC25B (Homo sapiens, UniProt P30305).
T1 construct: Recombinant forms of the catalytic domains of CDC25A, -B and -C were obtained through the vectors pET28a-CDC25A-cd, pET28a-CDC25B-cd and pET28a-CDC25C-cd; made in house
T1 sequence (P30305 431-538 limits assumed): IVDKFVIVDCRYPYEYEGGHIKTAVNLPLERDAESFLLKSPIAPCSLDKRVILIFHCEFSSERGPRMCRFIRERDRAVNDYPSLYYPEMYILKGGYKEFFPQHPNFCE
In words: Residual phosphatase activity of recombinant CDC25B, fluorimetric OMFP assay. The class given is biochemical. The following applies: for remaining activity at 0.2 µM: 0.2 μM inhibitor; for remaining activity at 0.2 µM / remaining activity at 1 µM: 10 nM CDC25B, 25 μM OMFP, read-out: CDC25B residual activity (%) in the presence of [inhibitor]; for remaining activity at 1 µM: 1 μM inhibitor; for inhibition of the CDC25B phosphatase activity (in words): two inhibitor concentrations, 0.2 and 1 μM. The protocol:
Among the twenty-five structures identified from the multiple ligand-based chemoinformatic approach, eight compounds (2, 10, 12–14, and 16–18) were excluded from the analysis, because endowed with a strong fluorescent signal, which interfered with the emission wavelength of the synthetic substrate 3-O-methylfluorescein phosphate (OMFP) used in the fluorimetric assay. The inhibition of the phosphatase activity of CDC25B by the remaining seventeen analogs was evaluated in the presence of two different concentrations of these compounds (Table 2). […] For this reason, only one of these latter compounds, i.e. 3, was included in the following analysis.
The enzymatic activity of the catalytic domains of CDC25A, -B and -C were determined through a fluorimetric method, which monitored the dephosphorylation of the synthetic substrate OMFP, essentially as previously described. In steady-state enzyme kinetic studies, the residual phosphatase activity of purified recombinant CDC25B was measured at 30°C in the presence of different concentrations of the various inhibitors, using a computer-assisted Cary Eclipse spectrofluorimeter (Varian) equipped with an electronic temperature controller. Excitation and emission wavelengths were set at 485 and 530 nm, respectively; both excitation and emission slits were set at 10 nm. The reaction mixture contained 10 nM CDC25B and different concentrations of the various inhibitors in 500 μL final volume of 20 mM Tris-HCl, pH 7.8, 1 mM DTT. DMSO was used as vehicle control. The reaction started by the addition of 25 μM OMFP, and the formation of the fluorescent product o-methylfluorescein was monitored continuously. The rate of OMFP hydrolysis was expressed as arbitrary units per min (a.u./min). The comparison of the rates determined in the absence and in the presence of the various inhibitors allowed the calculation of the residual phosphatase activity, expressed as a percentage.

Experiment [2] concerns the target T1, CDC25B. Description: Ki from OMFP hydrolysis kinetics (Lineweaver-Burk), CDC25B. Type of experiment: biochemical. The following applies: 10 nM CDC25B, 1–25 μM OMFP; mean ± S.E. The protocol: (§1) To measure the inhibition constant (Ki) of the recombinant forms of CDC25A, -B and -C towards the various inhibitors, the affinity of the different forms of CDC25 towards OMFP was measured either in the absence or in the presence of fixed concentrations of the various inhibitors. The reaction mixture contained 20 nM CDC25A, or 10 nM CDC25B, or 40 nM CDC25C, and different concentrations of the various inhibitors in 500 μL final volume of 20 mM Tris-HCl, pH 7.8, 1 mM DTT. DMSO was used as vehicle control. The reaction started by the addition of 1–25 μM OMFP, and the rate of OMFP hydrolysis was measured as indicated before. The corresponding Lineweaver-Burk plots allowed the calculation of the KM for OMFP and of the Vmax of OMFP hydrolysis, expressed as a.u./minmax. […] The Ki values were obtained from the decrease of a.u./minmax in the presence of the inhibitor, according to the equation a.u./mimmax’ = a.u./mimmax/{1 + ([I]/Ki)}, where a.u./mimmax’ represents the Vmax measured in the presence of the concentration [I] of the inhibitor. The Ki values were obtained from at least three independent experiments and reported as mean ± S.E.

For experiment [3], the target named is T2, CDC25C (Homo sapiens, UniProt P30307).
T2 construct: Recombinant forms of the catalytic domains of CDC25A, -B and -C were obtained through the vectors pET28a-CDC25A-cd, pET28a-CDC25B-cd and pET28a-CDC25C-cd; made in house
T2 sequence (P30307 321-428 limits assumed): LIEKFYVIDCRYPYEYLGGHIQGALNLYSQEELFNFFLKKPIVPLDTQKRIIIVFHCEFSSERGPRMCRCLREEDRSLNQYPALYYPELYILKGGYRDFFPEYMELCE
Description: Ki from OMFP hydrolysis kinetics (Lineweaver-Burk), CDC25C. The class given is biochemical. The procedure: as §1, with “The reaction started by the addition of 1–25 μM OMFP, and the rate of OMFP hydrolysis was measured as indicated before.” left out

Experiment [4] relates to SAN cells. Description: MTT cell growth rate, SAN melanoma cells. The class given is cell-based, human. Particulars: 100 μM, 48 h, MTT. The procedure:
(§2) The human melanoma cell line A2058, kindly provided by CEINGE (Naples, Italy), and SAN cells were derived from lymph nodal metastases and grown in DMEM and RPMI 1640, respectively, supplemented with 10% FBS, 2 mM L-glutamine, 100 IU/mL penicillin G, and 100 μg/mL streptomycin in humidified incubator at 37°C under 5% CO2 atmosphere. All cells were split and seeded every three days and used during the exponential phase of growth. Cell treatments were always carried after 24 h from plating.
(§3) The MTT assay was used to detect cell proliferation essentially as previously described. Briefly, A2058 and SAN cells were plated in 96-well microtiter plates (100 μL/well) at 4000 and 6000 cells/well, respectively. After 24-h seeding, cells were treated with the selected compounds added at 25, 50 or 100 μM concentration, or with 0.5% (v/v) DMSO as a vehicle control. After 24-h, 48-h or 72-h treatment, and upon the addition of 10 μL of MTT solution in the dark, the plate was incubated for 3 h at 37°C under CO2 atmosphere. After medium aspiration and solubilization of formazan crystals, absorbance was measured at 570 nm, using an ELISA plate reader (Bio-Rad, Milano, Italy).

The target in experiment [5] is T3, CDC25A (Homo sapiens, UniProt P30304).
T3 construct: Recombinant forms of the catalytic domains of CDC25A, -B and -C were obtained through the vectors pET28a-CDC25A-cd, pET28a-CDC25B-cd and pET28a-CDC25C-cd; made in house
T3 sequence (P30304 376-482 limits assumed): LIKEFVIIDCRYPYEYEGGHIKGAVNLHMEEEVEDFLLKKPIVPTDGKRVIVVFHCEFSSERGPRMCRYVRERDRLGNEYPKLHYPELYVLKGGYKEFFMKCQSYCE
Description: Ki from OMFP hydrolysis kinetics (Lineweaver-Burk), CDC25A. Type of experiment: biochemical. The protocol:
as §1, with “The reaction started by the addition of 1–25 μM OMFP, and the rate of OMFP hydrolysis was measured as indicated before.” left out

Experiment [6] concerns A2058 cells. In words: MTT cell growth rate, A2058 melanoma cells. Type of experiment: cell-based, human. The following applies: A2058, 100 μM, 48 h, MTT. The protocol:
as §2, §3

The mark [7] stands for this setting: 40 nM CDC25C, 1–25 μM OMFP, mean ± S.E., read-out: Ki CDC25C.
The mark [8] stands for this setting: 20 nM CDC25A, 1–25 μM OMFP, mean ± S.E., read-out: Ki CDC25A.

Regarding `Cc1c2ccc(=O)cc-2oc2cc(O)ccc12` [Compound 1], in experiment [1], the remaining activity at 0.2 µM stood at 76%; the remaining activity at 1 µM was 9%; the “inhibition of the CDC25B phosphatase activity (in words)” value (from here on “inhibition”) is “measurable inhibition of the phosphatase activity, only when added at the highest concentration”.
For orientation: Ki means a dissociation constant, usually derived from enzyme kinetics or from competition with a known ligand. As to `O=C(O)c1c2ccc(=O)cc-2oc2cc(O)ccc12` [Compound 3], the results for the Ki in experiment [2], in experiment [3] (setting [7]) and in experiment [5] (setting [8]) were 2400 ± 390 nM, 4400 ± 620 nM and 280 ± 90 nM, respectively. For the same compound, in experiment [1], the remaining activity at 0.2 µM came out at 85%. In experiment [1], the remaining activity at 1 µM came to 62%. Also, the “inhibition” value in experiment [1] was “measurable inhibition of the phosphatase activity, only when added at the highest concentration”. The cell growth rate result in experiment [4] and in experiment [6] was “failure” each time.
As for `O=C(O)CCc1c2ccc(=O)cc-2oc2cc(O)ccc12` [Compound 4], in experiment [1], the remaining activity at 0.2 µM is 90%; the remaining activity at 1 µM is 28%; the “inhibition” value was “measurable inhibition of the phosphatase activity, only when added at the highest concentration”.
In the case of `O=C(O)C=Cc1c2ccc(=O)cc-2oc2cc(O)ccc12` [Compound 5], the inhibitory constant (Ki) in experiment [2] was found to be 120 ± 50 nM; in experiment [3] (setting [7]), 390 ± 150 nM; in experiment [5] (setting [8]), 380 ± 120 nM. Also, in experiment [1], the remaining activity at 0.2 µM was 12%. The remaining activity at 1 µM in experiment [1] amounted to 2%. The cell growth rate entry in experiment [4] and in experiment [6] was “failure” throughout.
`O=C(O)/C=C/c1c2ccc(=O)c(O)c-2oc2c(O)c(O)ccc12` [Compound 6, (E)-3-(4,5,6-trihydroxy-3-oxo-3H-xanthen-9-yl)acrylic acid]: the figures for the inhibition constant (Ki) in experiment [2], in experiment [3] (setting [7]) and in experiment [5] (setting [8]) were 1100 ± 370 nM, 1000 ± 410 nM and 100 ± 30 nM, respectively. The remaining activity at 0.2 µM in experiment [1] was found to be 14%. Further, in experiment [1], the remaining activity at 1 µM came to 2%. For the same compound, the cell growth rate result in experiment [4] was “significant reduction of cell growth rate”.
With `O=c1cc2oc3cc(O)c(O)cc3c(-c3ccccc3)c-2cc1O` [Compound 9], the inhibitory constant (Ki) stood at 440 ± 200 nM in experiment [2], 1500 ± 480 nM in experiment [3] (setting [7]) and 800 ± 310 nM in experiment [5] (setting [8]). In addition, the remaining activity at 0.2 µM in experiment [1] was 9%. Moreover, the remaining activity at 1 µM in experiment [1] came out at 0%. Moreover, the cell growth rate result in experiment [4] and in experiment [6] was “failure” throughout.
As for `O=C(O)c1ccccc1-c1c2cc(I)c(=O)c(I)c-2oc2c(I)c(O)c(I)cc12` [Compound 15], in experiment [1], the remaining activity at 0.2 µM is 79%; the remaining activity at 1 µM was 18%; the “inhibition” value was “measurable inhibition of the phosphatase activity, only when added at the highest concentration”.
Take `O=C(O)c1ccccc1-c1c2cc([N+](=O)[O-])c(=O)c(Br)c-2oc2c(Br)c(O)c([N+](=O)[O-])cc12` [Compound 19]: in experiment [1], the remaining activity at 0.2 µM was found to be 86%; the remaining activity at 1 µM was found to be 70%; the “inhibition” value is “measurable inhibition of the phosphatase activity, only when added at the highest concentration”.
Turning to `O=c1ccc2c(-c3ccccc3S(=O)(=O)O)c3ccc(O)c(O)c3oc-2c1O` [Compound 20], in experiment [1], the remaining activity at 0.2 µM was determined as 91%; the remaining activity at 1 µM turned out to be 24%; the “inhibition” value is given as “measurable inhibition of the phosphatase activity, only when added at the highest concentration”.
Turning to `CN(C)c1ccc(-c2c3cc(O)c(=O)cc-3oc3cc(O)c(O)cc23)cc1` [Compound 22], in experiment [1], the remaining activity at 0.2 µM is 80%; the remaining activity at 1 µM turned out to be 0%; the “inhibition” value was “measurable inhibition of the phosphatase activity, only when added at the highest concentration”.
For `O=C(O)C1[C@H]2C=C[C@H](C2)[C@H]1c1c2ccc(=O)c(O)c-2oc2c(O)c(O)ccc12` (stereo partly drawn) [Compound 24, (1R,3R,4S)-3-(4,5,6-trihydroxy-3-oxo-3H-xanthen-9-yl)bicyclo[2.2.1]hept-5-ene-2-carboxylic acid], the values for the inhibition constant (Ki) in experiment [2], in experiment [3] and in experiment [5] were 300 ± 80 nM, 400 ± 110 nM and 10 ± 5 nM, respectively. In addition, in experiment [1], the remaining activity at 0.2 µM is 22%. The remaining activity at 1 µM in experiment [1] was determined as 3%. Moreover, the cell growth rate entry in experiment [4] is “significant reduction of cell growth rate”.
On to `O=C(O)C1C(c2c3ccc(=O)c(O)c-3oc3c(O)c(O)ccc23)C2(Cl)C(Cl)=C(Cl)C1(Cl)C2(Cl)Cl` (centres unmarked) [Compound 25], for which the Ki in experiment [2] was 1100 ± 400 nM; in experiment [3] (setting [7]), 960 ± 380 nM; in experiment [5] (setting [8]), 400 ± 150 nM. In addition, the remaining activity at 0.2 µM in experiment [1] is 24%. In addition, the remaining activity at 1 µM in experiment [1] is 1%. In addition, the cell growth rate entry in experiment [4] and in experiment [6] was “failure” throughout.
